Reference: PubChem BioAssay (NCI)
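48-hour exposure; five concentrations; linearly interpolated endpoints. Here, GI50 denotes the concentration required for 50% inhibition of growth. TGI is the concentration that stops growth completely.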

Assays:
Experiment in all cases: NCI-60 cell line screen, 48 h
[1] = tested on: SK-OV-3 ovarian
[2] = tested on: SNB-19 CNS
[3] = tested on: HCT-15 colon
[4] = tested on: NCI-H226 lung
[5] = tested on: NCI-H23 lung
[6] = tested on: HOP-62 NSCLC
[7] = tested on: SK-MEL-5 melanoma
[8] = tested on: HL-60(TB) leukemia
[9] = tested on: CAKI-1 renal
[10] = tested on: RXF 393 renal
[11] = tested on: SR leukemia
[12] = tested on: 786-0 renal
[13] = tested on: HT29 colon
[14] = tested on: BT-549 breast
[15] = tested on: A549 NSCLC
[16] = tested on: SK-MEL-2 melanoma
[17] = tested on: M14 melanoma
[18] = tested on: OVCAR-4 ovarian
[19] = tested on: SW-620 colon
[20] = tested on: MOLT-4 leukemia
[21] = tested on: NCI-H460 lung
[22] = tested on: UO-31 renal
[23] = tested on: HCC-2998 colon
[24] = tested on: ACHN renal
[25] = tested on: HOP-92 NSCLC
[26] = tested on: UACC-62 melanoma
[27] = tested on: MDA-MB-435
[28] = tested on: PC-3 prostate
[29] = tested on: NCI-H522 lung
[30] = tested on: OVCAR-5 ovarian
[31] = tested on: LOX IMVI melanoma
[32] = tested on: NCI/ADR-RES ovarian
[33] = tested on: SNB-75 CNS
[34] = tested on: MDA-MB-231 breast
[35] = tested on: SF-268 CNS
[36] = tested on: OVCAR-3 ovarian
[37] = tested on: HS 578T breast
[38] = tested on: SF-539 CNS
[39] = tested on: SF-295 CNS
[40] = tested on: SN12C renal
[41] = tested on: MCF7 breast
[42] = tested on: DU-145 prostate
[43] = tested on: T-47D breast
[44] = tested on: COLO 205 colon
[45] = tested on: TK-10 renal
[46] = tested on: IGROV1 ovarian
[47] = tested on: U251 CNS
[48] = tested on: UACC-257 melanoma
[49] = tested on: KM12 colon
[50] = tested on: SK-MEL-28 melanoma
[51] = tested on: HCT-116 colon
[52] = tested on: EKVX NSCLC
[53] = tested on: OVCAR-8 ovarian
[54] = tested on: CCRF-CEM leukemia
[55] = tested on: MALME-3M melanoma
[56] = tested on: RPMI-8226 leukemia
[57] = tested on: A498 renal

COc1cc2c3c(n(CCCNC4CCCCC4)c(=O)c2cc1OC)-c1cc2c(cc1C3=O)OCO2
GI50 [1]: 20.8 µM | TGI [1]: 51.1 µM | GI50 [2]: 26.2 µM | TGI [2]: > 76.5 µM | GI50 [3]: 1.62 µM | TGI [3]: 3.21 µM | GI50 [4]: 24.8 µM | TGI [4]: > 67 µM | GI50 [5]: 1.86 µM | TGI [5]: 4.22 µM | GI50 [6]: 15.8 µM | TGI [6]: 43.3 µM | GI50 [7]: 18.4 µM | TGI [7]: 36.3 µM | GI50 [8]: 1.62 µM | TGI [8]: 4.87 µM | GI50 [9]: 7.69 µM | TGI [9]: 22.9 µM | GI50 [10]: 9.22 µM | TGI [10]: 37.8 µM | GI50 [11]: 0.245 µM | TGI [11]: 4.17 µM | GI50 [12]: 1.73 µM | TGI [12]: 3.19 µM | GI50 [13]: 1.82 µM | TGI [13]: 3.66 µM | GI50 [14]: 15.2 µM | TGI [14]: 31.9 µM | GI50 [15]: 5.87 µM | TGI [15]: 18.5 µM | GI50 [16]: > 100 µM | TGI [16]: > 100 µM | GI50 [17]: 18.3 µM | TGI [17]: 39.2 µM | GI50 [18]: 10.9 µM | TGI [18]: 23.9 µM | GI50 [19]: 1.44 µM | TGI [19]: 4.18 µM | GI50 [20]: 0.354 µM | TGI [20]: 3.93 µM | GI50 [21]: 1.52 µM | TGI [21]: 3.24 µM | GI50 [22]: 13.3 µM | TGI [22]: 27.3 µM | GI50 [23]: 3.69 µM | TGI [23]: 8.34 µM | GI50 [24]: 8.95 µM | TGI [24]: 33.5 µM | GI50 [25]: 15.5 µM | TGI [25]: 42 µM | GI50 [26]: 27 µM | TGI [26]: > 66.5 µM | GI50 [27]: 14.7 µM | TGI [27]: 34.3 µM | GI50 [28]: 16.8 µM | TGI [28]: 85.6 µM | GI50 [29]: 10.8 µM | TGI [29]: 59.2 µM | GI50 [30]: 20.3 µM | TGI [30]: 48.4 µM | GI50 [31]: 1.43 µM | TGI [31]: 3 µM | GI50 [32]: 1.78 µM | TGI [32]: 4.45 µM | GI50 [33]: 11.9 µM | TGI [33]: 25.5 µM | GI50 [34]: 2.18 µM | TGI [34]: 5.13 µM | GI50 [35]: 9.87 µM | TGI [35]: > 69 µM | GI50 [36]: 10.8 µM | TGI [36]: 33 µM | GI50 [37]: 49 µM | TGI [37]: > 100 µM | GI50 [38]: 4.57 µM | TGI [38]: 8.91 µM | GI50 [39]: 12.1 µM | TGI [39]: > 58.1 µM | GI50 [40]: 18.2 µM | TGI [40]: > 57.8 µM | GI50 [41]: 1.2 µM | TGI [41]: 2.84 µM | GI50 [42]: 1.83 µM | TGI [42]: 3.74 µM | GI50 [43]: 20.8 µM | TGI [43]: 61.4 µM | GI50 [44]: 8 µM | TGI [44]: > 54 µM | GI50 [45]: 20.9 µM | TGI [45]: 36.7 µM | GI50 [46]: 15.4 µM | TGI [46]: > 100 µM | GI50 [47]: 7.85 µM | TGI [47]: 51.6 µM | GI50 [48]: 18.9 µM | TGI [48]: 43 µM | GI50 [49]: 11.7 µM | TGI [49]: > 59 µM | GI50 [50]: 22.7 µM | TGI [50]: > 55.7 µM | GI50 [51]: 1.59 µM | TGI [51]: 3.03 µM | GI50 [52]: 14.3 µM | TGI [52]: > 63.8 µM | GI50 [53]: 18 µM | TGI [53]: 36.6 µM | GI50 [54]: 0.319 µM | TGI [54]: 13.7 µM | GI50 [55]: 14.4 µM | TGI [55]: 29.1 µM | GI50 [56]: 1.82 µM | TGI [56]: 6.39 µM | GI50 [57]: 20.8 µM | TGI [57]: 49.1 µM

Clc1ccc2c(N/N=C/c3c[nH]c4ccccc34)ccnc2c1
GI50 [1]: 1.67 µM | TGI [1]: 3.13 µM | GI50 [3]: 0.373 µM | TGI [3]: 1.49 µM | GI50 [4]: 1.88 µM | TGI [4]: 4.54 µM | GI50 [5]: 1.62 µM | TGI [5]: 3.17 µM | GI50 [6]: 1.67 µM | TGI [6]: 3.25 µM | GI50 [7]: 1.75 µM | TGI [7]: 3.14 µM | GI50 [9]: 1.68 µM | TGI [9]: 3.1 µM | GI50 [10]: 1.47 µM | TGI [10]: 2.83 µM | GI50 [12]: 1.41 µM | TGI [12]: 2.77 µM | GI50 [14]: 1.55 µM | TGI [14]: 2.91 µM | GI50 [16]: 1.83 µM | TGI [16]: 3.35 µM | GI50 [17]: 1.73 µM | TGI [17]: 3.18 µM | GI50 [18]: 1.83 µM | TGI [18]: 3.63 µM | GI50 [19]: 0.793 µM | TGI [19]: 2.2 µM | GI50 [20]: 1.05 µM | TGI [20]: 3.83 µM | GI50 [22]: 1.32 µM | TGI [22]: 2.66 µM | GI50 [24]: 1.87 µM | TGI [24]: 3.27 µM | GI50 [25]: 0.539 µM | TGI [25]: 2.02 µM | GI50 [27]: 1.75 µM | TGI [27]: 3.18 µM | GI50 [28]: 1.55 µM | TGI [28]: 2.95 µM | GI50 [29]: 1.77 µM | TGI [29]: 3.32 µM | GI50 [30]: 1.63 µM | TGI [30]: 3.04 µM | GI50 [32]: 1.93 µM | TGI [32]: 4.45 µM | GI50 [33]: 1.38 µM | TGI [33]: 2.72 µM | GI50 [34]: 1.65 µM | TGI [34]: 3.17 µM | GI50 [38]: 1.72 µM | TGI [38]: 3.12 µM | GI50 [39]: 1.82 µM | TGI [39]: 3.25 µM | GI50 [42]: 1.53 µM | TGI [42]: 2.93 µM | GI50 [44]: 1.79 µM | TGI [44]: 3.42 µM | GI50 [45]: 2.09 µM | TGI [45]: 3.57 µM | GI50 [47]: 0.837 µM | TGI [47]: 2.11 µM | GI50 [48]: 1.65 µM | TGI [48]: 3.04 µM | GI50 [49]: 1.79 µM | TGI [49]: 3.33 µM | GI50 [50]: 1.81 µM | TGI [50]: 3.23 µM | GI50 [55]: 1.76 µM | TGI [55]: 3.27 µM | GI50 [57]: 1.51 µM | TGI [57]: 2.87 µM
